According to PubChem BioAssay AID256 (DTP/NCI, 2004):
Where “and” joins values, the source holds several entries; their conditions need not be identical. Equal entries are not always repeated. Toxic doses and inconclusive results are not listed. Rule for the calls: active = survival T/C of 150% or more; inactive = T/C below 125% in these data.

System: CD2F1 mice, L1210 leukemia ip, survival T/C
Experiment: NCI In Vivo Anticancer Drug Screen. Data for tumor model L1210 Leukemia (intraperitoneal) in CD2F1 (CDF1) mice
Conditions: higher = longer survival
In short: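 Implant tumor; dose compound or vehicle; measure endpoint in both groups; report treated divided by control.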

[1] = endpoint: mean survival time, dose: 100.0 mg/kg/injection, schedule: Q04DX003 (ip), vehicle: saline with Tween-80
[2] = endpoint: mean survival time, dose: 200.0 mg/kg/injection, schedule: Q04DX003 (ip), vehicle: saline with Tween-80
[3] = endpoint: mean survival time, dose: 400.0 mg/kg/injection, schedule: Q04DX003 (ip), vehicle: saline with Tween-80
[4] = endpoint: mean survival time, dose: 100.0 mg/kg/injection, schedule: Q04DX003 (ip), vehicle: saline
[5] = endpoint: mean survival time, dose: 100.0 mg/kg/injection, schedule: Q01DX001 (ip), vehicle: saline with Tween-80
[6] = endpoint: mean survival time, dose: 200.0 mg/kg/injection, schedule: Q01DX001 (ip), vehicle: saline with Tween-80
[7] = endpoint: mean survival time, dose: 400.0 mg/kg/injection, schedule: Q01DX001 (ip), vehicle: saline with Tween-80
[8] = endpoint: mean survival time, dose: 50.0 mg/kg/injection, schedule: Q01DX009 (ip), vehicle: saline with Tween-80
[9] = endpoint: mean survival time, dose: 100.0 mg/kg/injection, schedule: Q01DX009 (ip), vehicle: saline with Tween-80
[10] = endpoint: mean survival time, dose: 200.0 mg/kg/injection, schedule: Q01DX009 (ip), vehicle: saline with Tween-80

Measured: T/C

CCOP(=[Se])(OCC)[Se][Se][Se]P(=[Se])(OCC)OCC
inactive: endpoint: mean survival time, dose: 100.0 mg/kg/injection, schedule: Q01DX001 (ip), vehicle: saline 108 % of control

O=C1c2cccc(O)c2C(=O)c2cccc(O)c21
inactive: [1] 102 % of control | [2] 94 % of control | [3] 105 % of control

COS(=O)(=O)O
inactive: [4] 96 % of control | endpoint: mean survival time, dose: 200.0 mg/kg/injection, schedule: Q04DX003 (ip), vehicle: saline 96 % of control

COC(=O)Cc1cc(O)c(C(=O)OC)c(O)c1C(=O)OC
inactive: [5] 103 % of control | [6] 98 % of control | [7] 98 % of control

OCC(O)C(O)C(O)C(O)/C=N/O (configuration not stated)
inactive: [8] 97 % of control | [9] 97 % of control | [10] 104 % of control

COc1cc2c(cc1OC)C13CCN4CC5=CCOC6CC(=O)N2C1C6C5CC43 (configuration not stated) (tested in a mixture with another compound)
inactive: [5] 110 % of control | endpoint: mean survival time, dose: 100.0 mg/kg/injection, schedule: Q01DX009 (ip), vehicle: saline 93 % of control

O=C(Nc1nc(-c2ccccc2)cs1)Nc1cccc(Cl)c1Cl
inactive: [8] 101 % of control | [9] 90 % of control | [10] 97 % of control

CCC1(C)N=C(C)C(C)S1 (configuration not stated)
inactive: [9] 89 % of control | [10] 100 % of control | endpoint: mean survival time, dose: 400.0 mg/kg/injection, schedule: Q01DX009 (ip), vehicle: saline with Tween-80 91 % of control

Nc1ccc(S(=O)(=O)Nc2cnc3c(Cl)cccc3n2)cc1
inactive: endpoint: median survival time, dose: 100.0 mg/kg/injection, schedule: Q01DX005 (ip), vehicle: DMSO 98 % of control | endpoint: median survival time, dose: 200.0 mg/kg/injection, schedule: Q01DX005 (ip), vehicle: DMSO 98 % of control | endpoint: median survival time, dose: 400.0 mg/kg/injection, schedule: Q01DX005 (ip), vehicle: DMSO 98 % of control | endpoint: median survival time, dose: 800.0 mg/kg/injection, schedule: Q01DX005 (ip), vehicle: DMSO 105 % of control

C[N+](C)(CCCCCC[N+](C)(C)Cc1ccccc1)Cc1ccccc1
inactive: endpoint: mean survival time, dose: 1.25 mg/kg/injection, schedule: Q01DX009 (ip), vehicle: saline with Tween-80 93 % of control | endpoint: mean survival time, dose: 2.5 mg/kg/injection, schedule: Q01DX009 (ip), vehicle: saline with Tween-80 93 % of control | endpoint: mean survival time, dose: 5.0 mg/kg/injection, schedule: Q01DX009 (ip), vehicle: saline with Tween-80 93 % of control | endpoint: median survival time, dose: 0.63 mg/kg/injection, schedule: Q04DX002 (ip), vehicle: saline with Tween-80 112 % of control | endpoint: median survival time, dose: 1.25 mg/kg/injection, schedule: Q04DX002 (ip), vehicle: saline with Tween-80 100 % of control | endpoint: median survival time, dose: 2.5 mg/kg/injection, schedule: Q04DX002 (ip), vehicle: saline with Tween-80 100 % of control | endpoint: median survival time, dose: 5.0 mg/kg/injection, schedule: Q04DX002 (ip), vehicle: saline with Tween-80 100 % of control

Nc1ccc(Br)cc1
inactive: [1] 97 % of control | [2] 100 % of control | [3] 87 % of control

CC(=O)NC(C=O)OCC=O (configuration not stated)
inactive: endpoint: median survival time, dose: 6.0 mg/kg/injection, schedule: Q01DX009 (ip), vehicle: water 100 % of control | endpoint: median survival time, dose: 6.25 mg/kg/injection, schedule: Q01DX009 (ip), vehicle: water 105 % of control | endpoint: median survival time, dose: 12.0 mg/kg/injection, schedule: Q01DX009 (ip), vehicle: water 103 % of control | endpoint: median survival time, dose: 12.5 mg/kg/injection, schedule: Q01DX009 (ip), vehicle: water 105 % of control | endpoint: median survival time, dose: 25.0 mg/kg/injection, schedule: Q01DX009 (ip), vehicle: water 105 % of control and 108 % of control | endpoint: median survival time, dose: 50.0 mg/kg/injection, schedule: Q01DX009 (ip), vehicle: water 102 % of control and 108 % of control | endpoint: median survival time, dose: 100.0 mg/kg/injection, schedule: Q01DX009 (ip), vehicle: water 116 % of control and 111 % of control | endpoint: median survival time, dose: 200.0 mg/kg/injection, schedule: Q01DX009 (ip), vehicle: water 115 % of control and 108 % of control

Nc1cccc(CCCCc2ccc(Cl)c(S(=O)(=O)F)c2)c1
inactive: [9] 94 % of control | [1] 106 % of control | [10] 97 % of control | [2] 106 % of control | [3] 108 % of control

O=C1c2ccccc2C(=O)c2c(NCCSCCO)ccc(NCCSCCO)c21
inactive: endpoint: mean survival time, dose: 16.0 mg/kg/injection, schedule: Q01DX009 (ip), vehicle: Klucel (hydroxypropylcellulose) (HPC) 100 % of control | endpoint: mean survival time, dose: 32.0 mg/kg/injection, schedule: Q01DX009 (ip), vehicle: Klucel (hydroxypropylcellulose) (HPC) 102 % of control | endpoint: mean survival time, dose: 64.0 mg/kg/injection, schedule: Q01DX009 (ip), vehicle: Klucel (hydroxypropylcellulose) (HPC) 93 % of control | endpoint: mean survival time, dose: 128.0 mg/kg/injection, schedule: Q01DX009 (ip), vehicle: Klucel (hydroxypropylcellulose) (HPC) 93 % of control | endpoint: mean survival time, dose: 256.0 mg/kg/injection, schedule: Q01DX009 (ip), vehicle: Klucel (hydroxypropylcellulose) (HPC) 102 % of control

Brc1ccc(OCC(COc2ccc(Br)cc2)(COc2ccc(Br)cc2)COc2ccc(Br)cc2)cc1
inactive: endpoint: mean survival time, dose: 100.0 mg/kg/injection, schedule: Q01DX001 (ip), vehicle: Klucel (hydroxypropylcellulose) (HPC) 100 % of control | endpoint: mean survival time, dose: 200.0 mg/kg/injection, schedule: Q01DX001 (ip), vehicle: Klucel (hydroxypropylcellulose) (HPC) 103 % of control | endpoint: mean survival time, dose: 400.0 mg/kg/injection, schedule: Q01DX001 (ip), vehicle: Klucel (hydroxypropylcellulose) (HPC) 91 % of control

Cn1c(=O)[nH]c2nncnc2c1=O
inactive: endpoint: mean survival time, dose: 2.0 mg/kg/injection, schedule: Q01DX009 (ip), vehicle: water 103 % of control | endpoint: mean survival time, dose: 4.0 mg/kg/injection, schedule: Q01DX009 (ip), vehicle: water 97 % of control | endpoint: mean survival time, dose: 8.0 mg/kg/injection, schedule: Q01DX009 (ip), vehicle: water 97 % of control | endpoint: mean survival time, dose: 16.0 mg/kg/injection, schedule: Q01DX009 (ip), vehicle: water 98 % of control | endpoint: mean survival time, dose: 32.0 mg/kg/injection, schedule: Q01DX009 (ip), vehicle: water 101 % of control | endpoint: mean survival time, dose: 375.0 micrograms/kg/injection, schedule: Q01DX009 (ip), vehicle: saline 100 % of control | endpoint: mean survival time, dose: 750.0 micrograms/kg/injection, schedule: Q01DX009 (ip), vehicle: saline 104 % of control | endpoint: mean survival time, dose: 1500.0 micrograms/kg/injection, schedule: Q01DX009 (ip), vehicle: saline 100 % of control | endpoint: mean survival time, dose: 3000.0 micrograms/kg/injection, schedule: Q01DX009 (ip), vehicle: saline 100 % of control

O=CO.[Co]
inactive: endpoint: mean survival time, dose: 5.0 mg/kg/injection, schedule: Q01DX001 (ip), vehicle: saline 106 % of control | endpoint: mean survival time, dose: 10.0 mg/kg/injection, schedule: Q01DX001 (ip), vehicle: saline 103 % of control | endpoint: mean survival time, dose: 20.0 mg/kg/injection, schedule: Q01DX001 (ip), vehicle: saline 106 % of control | endpoint: mean survival time, dose: 40.0 mg/kg/injection, schedule: Q01DX001 (ip), vehicle: saline 100 % of control

CCCOc1ccc(C(N)=S)c2ccccc12
inactive: endpoint: mean survival time, dose: 100.0 mg/kg/injection, schedule: Q04DX002 (ip), vehicle: Klucel (hydroxypropylcellulose) (HPC) 105 % of control | endpoint: mean survival time, dose: 200.0 mg/kg/injection, schedule: Q04DX002 (ip), vehicle: Klucel (hydroxypropylcellulose) (HPC) 102 % of control | endpoint: mean survival time, dose: 400.0 mg/kg/injection, schedule: Q04DX002 (ip), vehicle: Klucel (hydroxypropylcellulose) (HPC) 105 % of control

Oc1ccccc1C=NCC[N-]CCN=Cc1ccccc1O.[Co]
inactive: endpoint: mean survival time, dose: 12.5 mg/kg/injection, schedule: Q01DX009 (ip), vehicle: saline 115 % of control | endpoint: mean survival time, dose: 12.5 mg/kg/injection, schedule: Q04DX003 (ip), vehicle: saline 107 % of control | endpoint: mean survival time, dose: 25.0 mg/kg/injection, schedule: Q01DX009 (ip), vehicle: saline 103 % of control | endpoint: mean survival time, dose: 25.0 mg/kg/injection, schedule: Q04DX003 (ip), vehicle: saline 100 % of control | endpoint: mean survival time, dose: 50.0 mg/kg/injection, schedule: Q01DX009 (ip), vehicle: saline 97 % of control | endpoint: mean survival time, dose: 50.0 mg/kg/injection, schedule: Q04DX003 (ip), vehicle: saline 103 % of control | [4] 107 % of control

O=C1CCCC(=O)N1CCCCCCN1C(=O)CCCC1=O
inactive: [9] 94 % of control | [1] 100 % of control | [10] 108 % of control | [2] 101 % of control | [3] 101 % of control

CCN1CCSC1=S
inactive: endpoint: mean survival time, dose: 75.0 mg/kg/injection, schedule: Q01DX001 (ip), vehicle: other 102 % of control | endpoint: mean survival time, dose: 150.0 mg/kg/injection, schedule: Q01DX001 (ip), vehicle: other 100 % of control | endpoint: mean survival time, dose: 300.0 mg/kg/injection, schedule: Q01DX001 (ip), vehicle: other 103 % of control

CC(=O)N/C(=C/c1ccccc1)C(=O)NC(C)(C)C
inactive: [1] 96 % of control | [2] 99 % of control | [3] 89 % of control

O=C(O)Cc1cc(=O)oc2ccccc12
inactive: [5] 104 % of control | [6] 104 % of control | [7] 96 % of control
